{"source": "paper PMC12217474", "about": "(Antimicrobial Agents and Chemotherapy, 2025)", "key": {"[1]": {"details": "for ELF AUC0-24 / Plasma AUC0-24: steady state, healthy subjects, Study I6424-108a, N = 20", "source_text": "(§1) By fixing the plasma PK parameters to the individual post hoc values, it was possible to predict ELF concentrations using a biophase model with unidirectional first-order transfer from the central compartment to ELF (k13) and first-order elimination from the ELF compartment (k30). In order to allow for the estimation of IIV in k30, since only one ELF measurement was collected per subject, the residual variability of ELF data was fixed to be equal to that previously estimated for the plasma PK data in healthy subjects from Phases 1 and 4 studies. […] In this simulation, the parameter estimates from the modified final population PK model were utilized along with the mean (standard deviation) of the subject covariate effects in the model, such as age and body weight from healthy subjects in Study I6424-108a."}, "clinical": {"assay": "clinical", "details": "human, iv, 10 mg/kg; for Kp uu: epithelial lining fluid (ELF) / plasma; for Kp: epithelial lining fluid (ELF) versus total-drug plasma, ELF penetration ratio (total drug)", "source_text": "as §1"}, "[2]": {"details": "cited from earlier work"}, "[3]": {"details": "final population PK model, final estimate"}}, "note": "Like-named read-outs stand apart in the source and are kept apart here.", "data": [{"compound": "CCCCCCCCCCNCCN[C@@]1(C)C[C@H](O[C@H]2[C@H](Oc3c4cc5cc3Oc3ccc(cc3Cl)[C@@H](O)[C@@H](NC(=O)[C@@H](CC(C)C)NC)C(=O)N[C@@H](CC(N)=O)C(=O)N[C@H]5C(=O)N[C@H]3C(=O)N[C@H](C(=O)N[C@H](C(=O)O)c5cc(O)c(CNCP(=O)(O)O)c(O)c5-c5cc3ccc5O)[C@H](O)c3ccc(c(Cl)c3)O4)O[C@H](CO)[C@@H](O)[C@@H]2O)O[C@@H](C)[C@H]1O", "note": "[telavancin]", "values": [{"measurement": "k30 (first-order elimination from the ELF compartment)", "setting": "[1]; ELF population PK model, final estimate, 18 healthy subjects", "result": 0.154, "unit": "h⁻¹"}, {"measurement": "ELF AUC0-24", "setting": "[1]; 10 mg/kg IV q24h, urea-corrected BAL, mean (SD), SD", "result": "54.5 (16.1) mg·hour/L"}, {"measurement": "ELF AUC0-24", "setting": "[1]; 10 mg/kg IV q24h, maximum", "result": 99.0, "unit": "mg·h/L"}, {"measurement": "Plasma AUC0-24", "setting": "[1]; 10 mg/kg IV q24h, maximum", "result": 954, "unit": "mg·h/L"}, {"measurement": "ELF AUC0-24", "setting": "[1]; 10 mg/kg IV q24h, median", "result": 50.6, "unit": "mg·h/L"}, {"measurement": "Plasma AUC0-24", "setting": "[1]; 10 mg/kg IV q24h, median", "result": 757, "unit": "mg·h/L"}, {"measurement": "ELF AUC0-24", "setting": "[1]; 10 mg/kg IV q24h, minimum", "result": 38.3, "unit": "mg·h/L"}, {"measurement": "Plasma AUC0-24", "setting": "[1]; 10 mg/kg IV q24h, minimum", "result": 570, "unit": "mg·h/L"}, {"measurement": "Plasma AUC0-24", "setting": "[1]; 10 mg/kg IV q24h for 3 days, mean (SD), SD", "result": "750 (103) mg·hour/L"}, {"measurement": "Kp uu", "setting": "clinical; ELF penetration ratio (free drug), ELF AUC0-24/(0.1 total-drug plasma AUC0-24), median, N = 20", "result": 0.683}, {"measurement": "Kp uu", "setting": "clinical; SD", "result": 0.73}, {"measurement": "Kp", "setting": "clinical; ELF AUC0-24/total-drug plasma AUC0-24, healthy subjects, Study I6424-108a, mean (SD), N = 20, SD", "result": 0.073}, {"measurement": "Kp", "setting": "clinical; ELF AUC0-24/total-drug plasma AUC0-24, median, N = 20", "result": 0.0683}, {"measurement": "CLDL (dialysis clearance)", "setting": "bootstrap (N = 200), mean", "result": 1.79, "unit": "L/h"}, {"measurement": "CLR, max (maximum renal clearance)", "setting": "bootstrap (N = 200), mean", "result": 1.04, "unit": "L/h"}, {"measurement": "CLd coefficient (distributional clearance between central and peripheral compartments)", "setting": "bootstrap (N = 200), mean", "result": 3.78, "unit": "L/h"}, {"measurement": "Vc-TBW power", "setting": "bootstrap (N = 200), mean", "result": 0.438}, {"measurement": "Vc-age power", "setting": "bootstrap (N = 200), mean", "result": 0.184}, {"measurement": "Vc-increase for CKD5 subjects after >48 hours has elapsed between IHD sessions", "setting": "bootstrap (N = 200), mean", "result": 1.57, "unit": "L"}, {"measurement": "Vc-proportional increase for bacteremia/HABP/VABP patients", "setting": "bootstrap (N = 200), mean", "result": 0.600}, {"measurement": "Vc-proportional increase for cSSSI patients", "setting": "bootstrap (N = 200), mean", "result": 0.299}, {"measurement": "Vc-proportional increase for females", "setting": "bootstrap (N = 200), mean", "result": "−0.0583"}, {"measurement": "Vp-BMI power", "setting": "bootstrap (N = 200), mean", "result": "−0.325"}, {"measurement": "Vp-TBW power", "setting": "bootstrap (N = 200), mean", "result": 0.971}, {"measurement": "Vp-age power", "setting": "bootstrap (N = 200), mean", "result": 0.289}, {"measurement": "Vp-proportional increase for bacteremia/HABP/VABP patients", "setting": "bootstrap (N = 200), mean", "result": 0.288}, {"measurement": "Vp-proportional increase for cSSSI patients", "setting": "bootstrap (N = 200), mean", "result": 0.127}, {"measurement": "CLDL (dialysis clearance)", "setting": "bootstrap (N = 200), median", "result": 1.77, "unit": "L/h"}, {"measurement": "CLR, max (maximum renal clearance)", "setting": "bootstrap (N = 200), median", "result": 1.04, "unit": "L/h"}, {"measurement": "CLd coefficient (distributional clearance between central and peripheral compartments)", "setting": "bootstrap (N = 200), median", "result": 3.75, "unit": "L/h"}, {"measurement": "Vc-TBW power", "setting": "bootstrap (N = 200), median", "result": 0.442}, {"measurement": "Vc-age power", "setting": "bootstrap (N = 200), median", "result": 0.183}, {"measurement": "Vc-increase for CKD5 subjects after >48 hours has elapsed between IHD sessions", "setting": "bootstrap (N = 200), median", "result": 1.56, "unit": "L"}, {"measurement": "Vc-proportional increase for bacteremia/HABP/VABP patients", "setting": "bootstrap (N = 200), median", "result": 0.599}, {"measurement": "Vc-proportional increase for cSSSI patients", "setting": "bootstrap (N = 200), median", "result": 0.300}, {"measurement": "Vc-proportional increase for females", "setting": "bootstrap (N = 200), median", "result": "−0.0577"}, {"measurement": "Vp-BMI power", "setting": "bootstrap (N = 200), median", "result": "−0.317"}, {"measurement": "Vp-TBW power", "setting": "bootstrap (N = 200), median", "result": 0.969}, {"measurement": "Vp-age power", "setting": "bootstrap (N = 200), median", "result": 0.289}, {"measurement": "Vp-proportional increase for bacteremia/HABP/VABP patients", "setting": "bootstrap (N = 200), median", "result": 0.295}, {"measurement": "Vp-proportional increase for cSSSI patients", "setting": "bootstrap (N = 200), median", "result": 0.125}, {"measurement": "CLNR (non-renal clearance)", "setting": "bootstrap of final population PK model (N = 200), mean", "result": 0.399, "unit": "L/h"}, {"measurement": "CLNR (non-renal clearance)", "setting": "bootstrap of final population PK model (N = 200), median", "result": 0.402, "unit": "L/h"}, {"measurement": "Vc-TBW power", "setting": "[3]", "result": 0.469}, {"measurement": "Vc-age power", "setting": "[3]", "result": 0.188}, {"measurement": "Vc-proportional increase for bacteremia/HABP/VABP patients", "setting": "[3]", "result": 0.578}, {"measurement": "Vc-proportional increase for cSSSI patients", "setting": "[3]", "result": 0.313}, {"measurement": "Vc-proportional increase for females", "setting": "[3]", "result": "−0.0584"}, {"measurement": "Vp-BMI power", "setting": "[3]", "result": "−0.308"}, {"measurement": "Vp-TBW power", "setting": "[3]", "result": 0.976}, {"measurement": "Vp-age power", "setting": "[3]", "result": 0.272}, {"measurement": "Vp-proportional increase for bacteremia/HABP/VABP patients", "setting": "[3]", "result": 0.329}, {"measurement": "Vp-proportional increase for cSSSI patients", "setting": "[3]", "result": 0.118}, {"measurement": "CLR, max (maximum renal clearance)", "setting": "final population PK model, final estimate, Hill-type CLR-CLcr relationship, N = 1,205", "result": 1.04, "unit": "L/h"}, {"measurement": "CLd coefficient (distributional clearance between central and peripheral compartments)", "setting": "final population PK model, final estimate, N = 1,205", "result": 3.73, "unit": "L/h"}, {"measurement": "Vc-increase for CKD5 subjects after >48 hours has elapsed between IHD sessions", "setting": "final population PK model, final estimate, additive increase", "result": 1.55, "unit": "L"}, {"measurement": "CLDL (dialysis clearance)", "setting": "final population PK model, final estimate, during active intermittent hemodialysis, eight CKD5 subjects", "result": 1.77, "unit": "L/h"}, {"measurement": "CLNR (non-renal clearance)", "setting": "final population PK model, final estimate, plasma, IV, healthy subjects and patients, N = 1,205", "result": 0.407, "unit": "L/h"}]}, {"compound": "vancomycin", "values": [{"measurement": "ELF penetration", "setting": "[2]; healthy volunteers with outliers removed", "result": "41%–56"}]}, {"compound": "dalbavancin", "values": [{"measurement": "reported ELF penetration", "setting": "[2]", "result": 36, "unit": "%"}]}, {"compound": "oritavancin", "values": [{"measurement": "reported ELF penetration ratio", "setting": "[2]; in vivo", "result": 459, "unit": "%"}]}]}
